For one experiment, the system named is K-562 leukemia cell line. The experiment can be described thus: NCI dose-dependent growth inhibition, K-562. The experiment is classed as cell-based. The following applies: 48-h exposure, optical density, data provided by NCI.
Experiment [1] concerns MOLT-4 leukemia cell line. Description: NCI dose-dependent growth inhibition, MOLT-4. The following applies: 48-h exposure, optical density, data provided by NCI. Format: cell-based.
A further experiment concerns SR leukemia cell line. The experiment can be described thus: NCI dose-dependent growth inhibition, SR. Format: cell-based. Conditions: 48-h exposure, optical density, data provided by NCI.
Experiment [2] addresses human 20S proteasome (hs20S), trypsin-like activity mediated by the β2 subunit (Homo sapiens, UniProt P49720+Q99436). The experiment is classed as biochemical. Conditions: Boc-LRR-AMC, Table 2.
Experiment [3] deals with RPMI-8226 leukemia cell line. Description: NCI dose-dependent growth inhibition, RPMI-8226. Format: cell-based. The following applies: 48-h exposure, optical density, data provided by NCI.
The next experiment has as its system HL-60 leukemia cell line. Description: NCI dose-dependent growth inhibition, HL-60. The following applies: 48-h exposure, optical density, data provided by NCI. The experiment is classed as cell-based.

This is an account of results in PMC4562813 (Bioorganic & medicinal chemistry, 2015).

Consider syringolin B methyl ester [Compound 1], for which the GI50 (in general, the concentration giving 50% growth inhibition) in the experiment on K-562 leukemia cell line was 6.12 µM; in experiment [1], 4.73 µM; in the experiment on SR leukemia cell line, 5.13 µM; in experiment [3], 3.97 µM; with HL-60 leukemia cell line it was 5.41 µM. Moreover, in experiment [2], the “Trypsin-Like Activity kin/Ki” value worked out at 326 M⁻¹ s⁻¹.
